According to ChEMBL document CHEMBL5550120, “SuFEx-based chemical diversification for the systematic discovery of CRBN molecular glues” (Bioorg Med Chem, 2024):
Active and inactive are the calls of the source. The calls are words filed in the database; no cut-off is given here.

Assays:
[1] = biological target: T1, Protein cereblon/Eukaryotic peptide chain release factor GTP-binding subunit ERF3A (Homo sapiens, UniProt Q96SW2+P15170); assay: Molecular glue activity at CRBN/GSPT1 in CRBN depleted human BE2C cells assessed as induction of GSPT1 degradation at 3 uM measured after 3 hrs by immunoblot analysis; type: cell-based
Target sequence in this assay (P15170 whole entry, looked up): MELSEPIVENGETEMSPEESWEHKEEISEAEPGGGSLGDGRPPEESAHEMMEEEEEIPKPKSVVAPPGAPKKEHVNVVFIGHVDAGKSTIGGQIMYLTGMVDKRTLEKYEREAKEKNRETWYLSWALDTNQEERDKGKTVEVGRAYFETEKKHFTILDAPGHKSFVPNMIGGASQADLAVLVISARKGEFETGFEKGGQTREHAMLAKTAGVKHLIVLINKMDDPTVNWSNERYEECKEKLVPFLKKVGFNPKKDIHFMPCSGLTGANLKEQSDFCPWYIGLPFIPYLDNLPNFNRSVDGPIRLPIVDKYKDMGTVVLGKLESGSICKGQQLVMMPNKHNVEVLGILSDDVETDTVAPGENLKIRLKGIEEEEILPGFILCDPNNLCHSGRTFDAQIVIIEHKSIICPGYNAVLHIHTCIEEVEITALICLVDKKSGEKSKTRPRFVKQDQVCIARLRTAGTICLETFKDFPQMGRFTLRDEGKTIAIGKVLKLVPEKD
Target sequence in this assay (Q96SW2 whole entry, looked up): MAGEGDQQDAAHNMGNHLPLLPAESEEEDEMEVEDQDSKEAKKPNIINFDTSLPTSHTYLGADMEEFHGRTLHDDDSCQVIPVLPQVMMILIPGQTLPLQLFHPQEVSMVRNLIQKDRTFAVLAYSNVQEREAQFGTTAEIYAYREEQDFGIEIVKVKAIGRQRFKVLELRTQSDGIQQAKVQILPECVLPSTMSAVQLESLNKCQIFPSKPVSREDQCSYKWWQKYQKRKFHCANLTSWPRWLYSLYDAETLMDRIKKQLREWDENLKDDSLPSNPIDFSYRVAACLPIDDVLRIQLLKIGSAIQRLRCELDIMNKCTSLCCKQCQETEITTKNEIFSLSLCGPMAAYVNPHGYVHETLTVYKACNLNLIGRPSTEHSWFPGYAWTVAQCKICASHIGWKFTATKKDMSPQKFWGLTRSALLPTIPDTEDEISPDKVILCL

[2] = biological target: T1, Protein cereblon/Eukaryotic peptide chain release factor GTP-binding subunit ERF3A; assay: Molecular glue activity at CRBN/HiBiT-tagged GSPT1 in human MV4-11 cells assessed as induction of GSPT1 degradation at 3 uM pretreated with carfilzomib at 500 nM for 1 hr followed by compound treatment and measured after 3 hrs by immunoblot analysis; type: cell-based
Target sequence in this assay (P15170 whole entry, looked up): as the sequence (P15170 whole entry, looked up) above
Target sequence in this assay (Q96SW2 whole entry, looked up): as the sequence (Q96SW2 whole entry, looked up) above

[3] = biological target: T1, Protein cereblon/Eukaryotic peptide chain release factor GTP-binding subunit ERF3A; assay: Molecular glue activity at CRBN/HiBiT-tagged GSPT1 in human MV4-11 cells assessed as induction of GSPT1 degradation at 3 uM pretreated with pomalidomide at 25 uM for 1 hr followed by compound treatment and measured after 3 hrs by immunoblot analysis; type: cell-based
Target sequence in this assay (P15170 whole entry, looked up): as the sequence (P15170 whole entry, looked up) above
Target sequence in this assay (Q96SW2 whole entry, looked up): as the sequence (Q96SW2 whole entry, looked up) above

[4] = tested on: MOLT-4; assay: Antiproliferative activity against wild type human MOLT-4 cells assessed as reduction in cell viability measured after 3 days by ATP-dependent luminescence assay; type: functional, cell-based; conditions: MOLT-4, 72 h
[5] = tested on: MOLT-4; assay: Antiproliferative activity against CRBN depleted human MOLT-4 cells assessed as reduction in cell viability measured after 3 days by ATP-dependent luminescence assay; type: functional, cell-based; conditions: time 3.0 day
[6] = Selectivity index, ratio of EC50 for antiproliferative activity against human BE2C cells to EC50 for antiproliferative activity against human MOLT-4 cells; type: functional
[7] = biological target: T1, Protein cereblon/Eukaryotic peptide chain release factor GTP-binding subunit ERF3A; assay: Molecular glue activity at CRBN/HiBiT-tagged GSPT1 in wild type human BE2C cells assessed as induction of GSPT1 degradation measured after 3 hrs by immunoblot analysis; type: cell-based
Target sequence in this assay (Q96SW2 whole entry): as the sequence (Q96SW2 whole entry, looked up) above
Target sequence in this assay (P15170 whole entry): as the sequence (P15170 whole entry, looked up) above

[8] = biological target: T1, Protein cereblon/Eukaryotic peptide chain release factor GTP-binding subunit ERF3A; assay: Molecular glue activity at CRBN/HiBiT-tagged GSPT1 in human MOLT-4 cells assessed as induction of GSPT1 degradation at 3 uM pretreated with carfilzomib at 500 nM for 1 hr followed by compound treatment and measured after 3 hrs by immunoblot analysis; type: cell-based
Target sequence in this assay (P15170 whole entry, looked up): as above
Target sequence in this assay (Q96SW2 whole entry, looked up): as the sequence (Q96SW2 whole entry, looked up) above

[9] = tested on: BE(2)-C; assay: Antiproliferative activity against wild type human BE2C cells assessed as reduction in cell viability measured after 3 days by ATP-dependent luminescence assay; type: functional, cell-based; conditions: 72 h
[10] = biological target: T1, Protein cereblon/Eukaryotic peptide chain release factor GTP-binding subunit ERF3A; assay: Molecular glue activity at CRBN/GSPT1 in CRBN depleted human MOLT-4 cells assessed as induction of GSPT1 degradation at 3 uM measured after 3 hrs by immunoblot analysis; type: cell-based
Target sequence in this assay (P15170 whole entry, looked up): as the sequence (P15170 whole entry, looked up) above
Target sequence in this assay (Q96SW2 whole entry, looked up): as the sequence (Q96SW2 whole entry, looked up) above

[11] = biological target: T1, Protein cereblon/Eukaryotic peptide chain release factor GTP-binding subunit ERF3A; assay: Molecular glue activity at CRBN/GSPT1 in human BE2C cells harboring GSPT1 G575N mutant assessed as induction of GSPT1 degradation at 3 uM measured after 3 hrs by immunoblot analysis; type: cell-based
Target sequence in this assay (P15170 whole entry, looked up): as the sequence (P15170 whole entry, looked up) above
Target sequence in this assay (Q96SW2 whole entry, looked up): as the sequence (Q96SW2 whole entry, looked up) above

[12] = biological target: DNA-binding protein Ikaros (Homo sapiens) (UniProt Q13422); assay: Induction of IKZF1 degradation in human MV4-11 cells at 3 uM measured after 3 hrs by immunoblot analysis; type: cell-based
DNA-binding protein Ikaros (Homo sapiens), sequence (Q13422 whole entry): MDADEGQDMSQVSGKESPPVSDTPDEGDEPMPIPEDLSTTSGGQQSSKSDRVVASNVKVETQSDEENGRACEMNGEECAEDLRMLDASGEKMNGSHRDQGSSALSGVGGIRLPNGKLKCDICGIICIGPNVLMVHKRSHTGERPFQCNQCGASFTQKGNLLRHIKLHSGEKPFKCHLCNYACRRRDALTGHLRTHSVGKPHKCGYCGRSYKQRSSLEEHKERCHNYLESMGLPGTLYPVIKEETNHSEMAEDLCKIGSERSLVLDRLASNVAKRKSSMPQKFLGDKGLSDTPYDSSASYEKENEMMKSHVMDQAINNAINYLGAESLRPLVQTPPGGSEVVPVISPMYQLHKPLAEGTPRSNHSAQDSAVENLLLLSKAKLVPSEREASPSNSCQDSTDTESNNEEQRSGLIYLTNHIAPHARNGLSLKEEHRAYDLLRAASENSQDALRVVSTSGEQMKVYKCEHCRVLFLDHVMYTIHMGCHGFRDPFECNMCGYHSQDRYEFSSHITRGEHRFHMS

[13] = tested on: MV4-11; assay: Downregulation of GSPT2 protein abundance in human MV4-11 cells at 3 uM measured after 3 hrs by proteomics analysis; type: functional, cell-based
[14] = tested on: MV4-11; assay: Downregulation of GSPT1 protein abundance in human MV4-11 cells at 3 uM measured after 3 hrs by proteomics analysis; type: functional, cell-based
[15] = biological target: T1, Protein cereblon/Eukaryotic peptide chain release factor GTP-binding subunit ERF3A; assay: Molecular glue activity at CRBN/GSPT1 in human MV4-11 cells harboring GSPT1 G575N mutant assessed as induction of GSPT1 degradation at 3 uM measured after 3 hrs by immunoblot analysis; type: cell-based
[16] = Selectivity index, ratio of EC50 for antiproliferative activity against human BE2C cells to EC50 for antiproliferative activity against human MV4-11 cells; type: functional
[17] = tested on: BE(2)-C; assay: Antiproliferative activity against human BE2C cells harboring GSPT1 G575N mutant assessed as reduction in cell viability measured after 3 days by ATP-dependent luminescence assay; type: functional, cell-based; conditions: time 3.0 day
[18] = biological target: T1, Protein cereblon/Eukaryotic peptide chain release factor GTP-binding subunit ERF3A; assay: Molecular glue activity at CRBN/HiBiT-tagged GSPT1 in wild type human MV4-11 cells assessed as induction of GSPT1 degradation measured after 3 hrs by immunoblot analysis; type: cell-based
Target sequence in this assay (Q96SW2 whole entry): as the sequence (Q96SW2 whole entry, looked up) above
Target sequence in this assay (P15170 whole entry): as the sequence (P15170 whole entry, looked up) above

[19] = biological target: DNA-binding protein Ikaros (Homo sapiens) (UniProt Q13422); assay: Induction of IKZF1 degradation in human MV4-11 cells at 3 uM measured after 3 hrs by proteomics analysis; type: cell-based
[20] = biological target: DNA-binding protein Ikaros (Homo sapiens) (UniProt Q13422); assay: Induction of cHiBiT-tagged IKZF1 degradation in human MV4-11 cells; type: cell-based
[21] = tested on: MV4-11; assay: Antiproliferative activity against wild type human MV4-11 cells assessed as reduction in cell viability measured after 3 days by ATP-dependent luminescence assay; type: functional, cell-based; conditions: MV4-11, 72 h
[22] = tested on: MOLT-4; assay: Antiproliferative activity against human MOLT-4 cells harboring GSPT1 G575N mutant assessed as reduction in cell viability measured after 3 days by ATP-dependent luminescence assay; type: functional, cell-based; conditions: time 3.0 day
[23] = biological target: T1, Protein cereblon/Eukaryotic peptide chain release factor GTP-binding subunit ERF3A; assay: Molecular glue activity at CRBN/GSPT1 in CRBN depleted human MV4-11 cells assessed as induction of GSPT1 degradation at 3 uM measured after 3 hrs by immunoblot analysis; type: cell-based
[24] = biological target: T1, Protein cereblon/Eukaryotic peptide chain release factor GTP-binding subunit ERF3A; assay: Molecular glue activity at CRBN/HiBiT-tagged GSPT1 in human BE2C cells assessed as induction of GSPT1 degradation at 3 uM pretreated with pomalidomide at 25 uM for 1 hr followed by compound treatment and measured after 3 hrs by immunoblot analysis; type: cell-based
[25] = biological target: T1, Protein cereblon/Eukaryotic peptide chain release factor GTP-binding subunit ERF3A; assay: Molecular glue activity at CRBN/GSPT1 in human MOLT-4 cells harboring GSPT1 G575N mutant assessed as induction of GSPT1 degradation at 3 uM measured after 3 hrs by immunoblot analysis; type: cell-based
[26] = biological target: T1, Protein cereblon/Eukaryotic peptide chain release factor GTP-binding subunit ERF3A; assay: Molecular glue activity at CRBN/HiBiT-tagged GSPT1 in human MOLT-4 cells assessed as induction of GSPT1 degradation at 3 uM pretreated with MLN4924 at 1 uM for 1 hr followed by compound treatment and measured after 3 hrs by immunoblot analysis; type: cell-based
[27] = biological target: T1, Protein cereblon/Eukaryotic peptide chain release factor GTP-binding subunit ERF3A; assay: Molecular glue activity at CRBN/HiBiT-tagged GSPT1 in human MOLT-4 cells assessed as induction of GSPT1 degradation measured after 3 hrs by immunoblot analysis; type: cell-based
Target sequence in this assay (Q96SW2 whole entry): as the sequence (Q96SW2 whole entry, looked up) above
Target sequence in this assay (P15170 whole entry): as the sequence (P15170 whole entry, looked up) above

[28] = tested on: MV4-11; assay: Antiproliferative activity against human MV4-11 cells harboring GSPT1 G575N mutant assessed as reduction in cell viability measured after 3 days by ATP-dependent luminescence assay; type: functional, cell-based; conditions: time 3.0 day
[29] = biological target: T1, Protein cereblon/Eukaryotic peptide chain release factor GTP-binding subunit ERF3A; assay: Molecular glue activity at CRBN/HiBiT-tagged GSPT1 in human BE2C cells assessed as induction of GSPT1 degradation at 3 uM pretreated with MLN4924 at 1 uM for 1 hr followed by compound treatment and measured after 3 hrs by immunoblot analysis; type: cell-based
[30] = tested on: MV4-11; assay: Antiproliferative activity against CRBN depleted human MV4-11 cells assessed as reduction in cell viability measured after 3 days by ATP-dependent luminescence assay; type: functional, cell-based; conditions: time 3.0 day
[31] = biological target: T1, Protein cereblon/Eukaryotic peptide chain release factor GTP-binding subunit ERF3A; assay: Molecular glue activity at CRBN/HiBiT-tagged GSPT1 in human BE2C cells assessed as induction of GSPT1 degradation at 3 uM pretreated with carfilzomib at 500 nM for 1 hr followed by compound treatment and measured after 3 hrs by immunoblot analysis; type: cell-based
[32] = biological target: T1, Protein cereblon/Eukaryotic peptide chain release factor GTP-binding subunit ERF3A; assay: Molecular glue activity at CRBN/HiBiT-tagged GSPT1 in human MOLT-4 cells assessed as induction of GSPT1 degradation at 3 uM pretreated with pomalidomide at 25 uM for 1 hr followed by compound treatment and measured after 3 hrs by immunoblot analysis; type: cell-based
[33] = biological target: T1, Protein cereblon/Eukaryotic peptide chain release factor GTP-binding subunit ERF3A; assay: Molecular glue activity at CRBN/HiBiT-tagged GSPT1 in human MV4-11 cells assessed as induction of GSPT1 degradation at 3 uM pretreated with MLN4924 at 1 uM for 1 hr followed by compound treatment and measured after 3 hrs by immunoblot analysis; type: cell-based
[34] = tested on: BE(2)-C; assay: Antiproliferative activity against CRBN depleted human BE2C cells assessed as reduction in cell viability measured after 3 days by ATP-dependent luminescence assay; type: functional, cell-based; conditions: time 3.0 day

Activity [1]	Activity [2]	Activity [3]	EC50 [4]	DC50 [7]	Activity [8]	Activity [10]	Activity [11]	Activity [15]	DC50 [18]	EC50 [21]	DC50 [27]	Compound	Activity [5]	Ratio EC50 [6]	EC50 [9]	Activity [13]	Activity [14]	Ratio EC50 [16]	Activity [17]	Activity [22]	other results
inactive	inactive	inactive	110 nM	7000 nM	inactive	inactive	inactive	inactive	60 nM	80 nM	90 nM	CCCOc1ccccc1CNS(=O)(=O)Nc1ccc2c(c1)CN(C1CCC(=O)NC1=O)C2=O (stereo unspecified)	inactive	~100	18000 nM	Active	Active	~100	inactive	inactive	Activity [12]: inactive; Activity [19]: inactive; Activity [20]: inactive; Activity [23]: inactive; Activity [24]: inactive; Activity [25]: inactive; Activity [26]: inactive; Activity [28]: inactive; Activity [29]: inactive; Activity [30]: inactive; Activity [31]: inactive; Activity [32]: inactive; Activity [33]: inactive; Activity [34]: inactive
			< 1 nM	< 1 nM					< 1 nM	< 1 nM	< 1 nM	Cc1ccc(NC(=O)NCc2ccc3c(c2)CN(C2CCC(=O)NC2=O)C3=O)cc1Cl (stereo unspecified)			< 5 nM						
inactive	inactive	inactive	180 nM	8000 nM	inactive	inactive	inactive	inactive	280 nM	190 nM	280 nM	Cc1cccc(Cl)c1OCCNS(=O)(=O)Nc1ccc2c(c1)CN(C1CCC(=O)NC1=O)C2=O (stereo unspecified)	inactive	~100	12000 nM	Active	Active	~100	inactive	inactive	Activity [12]: Active; Activity [19]: inactive; Activity [20]: Active; Activity [23]: inactive; Activity [24]: inactive; Activity [25]: inactive; Activity [26]: inactive; Activity [28]: inactive; Activity [29]: inactive; Activity [30]: inactive; Activity [31]: inactive; Activity [32]: inactive; Activity [33]: inactive; Activity [34]: inactive
inactive	inactive	inactive	420 nM	19000 nM	inactive	inactive	inactive	inactive	700 nM	410 nM	700 nM	CCC(C)(CCNS(=O)(=O)Nc1ccc2c(c1)CN(C1CCC(=O)NC1=O)C2=O)c1ccccc1OC (stereo unspecified)	inactive	~100	42000 nM	Active	Active	~100	inactive	inactive	Activity [23]: inactive; Activity [24]: inactive; Activity [25]: inactive; Activity [26]: inactive; Activity [28]: inactive; Activity [29]: inactive; Activity [30]: inactive; Activity [31]: inactive; Activity [32]: inactive; Activity [33]: inactive; Activity [34]: inactive
inactive	inactive	inactive	60 nM	14000 nM	inactive	inactive	inactive	inactive	120 nM	40 nM	90 nM	CC(C)CCOc1ccccc1OCCNS(=O)(=O)Nc1ccc2c(c1)CN(C1CCC(=O)NC1=O)C2=O (stereo unspecified)	inactive	~100	13000 nM	Active	Active	~100	inactive	inactive	Activity [23]: inactive; Activity [24]: inactive; Activity [25]: inactive; Activity [26]: inactive; Activity [28]: inactive; Activity [29]: inactive; Activity [30]: inactive; Activity [31]: inactive; Activity [32]: inactive; Activity [33]: inactive; Activity [34]: inactive
